Assay results taken from patent US20130053374A1, “OPHTHALMIC COMPOSITION” (priority 2010, published 2013).
≈ marks a conversion by molar mass, not a printed value. Like-named read-outs stand apart in the source and are kept apart here.

How the values were obtained:
[1] = pH 7.4, 0.5% (w/v) Timolol, 5% (w/v) HP (Boltorn W3000)
Method: The emulsion was prepared by slowing dispersing water to the weighed amount of waxed Boltorn® W3000 to make 5% (w/v) emulsion with continuous stirring and heating at 60-70° C. for at least 30 minutes, followed by continuous vigorous stirring for an additional 15 hours, to obtain a homogeneous emulsion mixture in a flask.
10 mM phosphate buffer was added to the appropriately weighed mass of solid active ingredients and stirred thoroughly for 15 minutes. Secondly, the effective volume of 5% (w/v) HP emulsion solution was diluted appropriately to make up the exact concentrations described in Table 13. The sample test emulsion solutions were then stirred for 10 minutes at room temperature (with heating up to 60° C. for 5 minutes). After stirring, the emulsion solution was sonicated for 5 minutes. After allowing the complete emulsion of all the active and non-active ingredients, the pH was adjusted to 7.4 by using 1 M NaOH, and additional buffer was added to make up the exact compositions in Table 13. With the adjustment of the pH, the emulsion solutions were further equilibrated by stirring for an additional 15 hours or more at room temperature. The pH of all the sample emulsion solutions was measured again to confirm the final desired pH of 7.4.

physchem = assay type: physicochemical; conditions: pH 7, aqueous with cosolvent or surfactant or cyclodextrin, thermodynamic from solid
Method: After allowing the suspensions to equilibrate at room temperature for additional 30 minutes, the suspension solutions were then sonicated for 10 min and finally filtered through 0.45 μm syringe filters.

[2] = Solubility of CAI with Bis-MPA hyperbranched polyester or PEG combination at pH 7.4 (Experimental Example 9); assay type: physicochemical; conditions: pH 7.4, 0.5% Timolol, 5% 3rd BMPA-HP
Method: Secondly, the effective volume of 5% (w/v) BMPA-HP solution was diluted appropriately to make up the exact concentrations described in Table 18. […] After stirring, the solution was sonicated for 5 minutes. […] The filtrates were analyzed for CAI using UPLC with the same condition as EXPERIMENTAL EXAMPLE 1.

[3] = cited from earlier work; for pKa (amine group): protonated secondary amine (Dorzolamide), amine (Brinzolamide); for pKa (sulfonamide group): sulfonamide (Dorzolamide), primary sulfonamide (Brinzolamide)
[4] = Aqueous solubility of Dorzolamide in the presence of Timolol with HP, PEG, Polysorbate 80 (Experimental Example 3); assay type: physicochemical
Method: The final pH was adjusted to 5.65 with 1 M NaOH after addition of HP (sample 1). The combination of different molecular weight PEG and Polysorbate 80 at pH 5.65 as per Table 3 were also attempted. […] After allowing the suspensions to equilibrate at room temperature for an additional 30 minutes, the suspension solutions were then sonicated for 10 minutes and finally filtered through 0.45 μm syringe filters.

intact rabbit corneas [5] = conditions: for enhancement of corneal permeation rate: male, New Zealand, rabbit, 180 min, pH 5.65
Method: The samples were filtered by 0.45 μm filter syringe. The initial concentration of both the samples was determined by UPLC analysis.
Three male rabbits (New Zealand) weighing 3-4 pounds. The age of the rabbits was 11-12 weeks. Immediately after sacrifice by an overdose of carbon dioxide gas, the eyes were enucleated, saline washed, and the corneas were separated for the use in permeation experiments. Each cornea was rinsed with freshly prepared receptor solution (Table 4) to remove excess stain. The six intact and fresh corneas were fixed between clamped donor and receptor compartments of an all glass side-by-side diffusion cell in such a way that its epithelial surface faces the donor compartment.
The corneal area available for permeation was 0.211 cm^2. The receptor compartment was filled with freshly prepared receptor solution at pH 7.2, as per the composition described in Table 4. An aliquot (5 mL) of sample #1 was placed on the two intact corneas, and the opening of the donor cells was sealed with a glass cover slip. After 10 minutes of applying sample #1, an aliquot (5 mL) of sample #2 was applied on the next two intact corneas. Again, after 10 minutes, sample #3 aliquot (5 mL) was applied on the remaining two intact corneas. The receptor fluid (5 mL in each receptor cell) was kept at constant temperature of 34° C. using constant stirring through water jacket in all the six cases. At predetermined time intervals of 10, 20, 40, 60, 80, 100, 120, 140, 160, and 180 minutes, 200 μL samples were withdrawn from the receptor solution. Thereafter, the same amount of the phosphate buffer solution was added to the receptor cell. The drug concentrations were assayed by UPLC.
At the end of the experiment, each cornea (free from adhering sclera) was weighed after soaking in de-ionized water. The wet cornea was dried overnight in oven, and reweighed. From the difference of weights, corneal hydration was calculated. […] The parameters that were calculated are as follows:

intact rabbit corneas [6] = test system: intact rabbit corneas
Method: 10 mM phosphate buffer was added to the appropriately weighed mass of the solid active ingredients, and stirred thoroughly for 15 minutes. […] The three test solutions were then stirred for 10 minutes at room temperature (with heating up to 60° C. for 5 minutes). After stirring, the solution was sonicated for 5 minutes. After allowing the complete dilution of all the active and non-active ingredients, the pH was adjusted to either 7.4 or 5.65 by using 1 M NaOH or 1 M HCl, and additional buffer was added to make up the exact compositions in the Table 15. With the adjustment of pH, the appearance was noted as per Table 14, and the formulations were further equilibrated by stirring for an additional 15 hours or more at room temperature. The pH of the all sample solutions was measured again to confirm the final desired pH. These formulations were used directly as sample donor solutions for the cornea permeation study.

isolated rabbit cornea = conditions: pH 7.4
Description: The permeability coefficient is inversely proportional to the initial concentration of the drug in the donor solution.

intact rabbit corneas [7] = test system: intact rabbit corneas; remark: listed apart in the source
Description: These suspension solutions were used directly as sample donor solutions for the cornea permeation study. In order to determine the solubility, the suspensions were filtered through 0.45 μm syringe filters.
Three male rabbits (New Zealand) weighing 2 to 3 kg. Immediately after sacrifice by an overdose of inhaler isoflurane, the eyes were enucleated, and the corneas were separated for use in the permeation experiments.

[8] = pH-solubility of Dorzolamide with hyperbranched polymer and PEG (Experimental Example 1); assay type: physicochemical; conditions: 0.1% (w/v) phosphate buffer, FIG. 1
Method: Similar suspensions were also prepared in aqueous solution containing different concentrations of different HP and PEG with a molecular weight of 8000. A combination of Polysorbate 80 and PEG 8000 was also attempted. The pH was measured accurately with micro-pH electrode (Thermo Scientific). The desired pH was adjusted using either 1 M NaOH or 1 M HCl. […] After allowing the suspensions to equilibrate at room temperature for an additional 30 minutes, the suspension solutions were then sonicated for 10 minutes and finally filtered through 0.45 μm syringe filters.

| Compound | solubility [1] | solubility at 30 min (physchem) [mg/mL] | solubility [2] | pKa (amine group) [3] | pKa (sulfonamide group) [3] | solubility of Timolol with the addition of additives ([4]; pH 5.65 and pH 7, samples containing 0.5% w/v Timolol) | diffusion coefficient on addition of HP and Polysorbate 80 (intact rabbit corneas [5]) | enhancement of corneal permeation rate (intact rabbit corneas [5]) | diffusion coefficient on addition of HP (intact rabbit corneas [6]) | cumulative amount permeated relative to control formulation at similar pH with no additives (intact rabbit corneas [6]; male, New Zealand, rabbit, 180 min, pH 7.4) [times] | cumulative amount permeated relative to the market product (isolated rabbit cornea; male, New Zealand, rabbit, 180 min) | diffusion coefficient on addition of HP (intact rabbit corneas [7]) | solubility thermodynamic at 30 min ([4]; aqueous buffer, thermodynamic from solid, pH 7, 10 mM phosphate buffer, no additives) [µg/mL] | pH-solubility profile (aqueous solubility vs pH) [8] | cumulative amount permeated compared to the market product (isolated rabbit cornea) |
| --- | --- | --- | --- | --- | --- | --- | --- | --- | --- | --- | --- | --- | --- | --- | --- |
| CCN[C@H]1CN(CCCOC)S(=O)(=O)c2sc(S(N)(=O)=O)cc21 [Brinzolamide] | about 2 % (w/v) | ~11 (≈ 28.7 mM) | about 1 % (w/v) | 5.9 | 8.4 |  |  |  |  |  |  |  |  |  |  |
| CC(C)(C)NC[C@H](O)COc1nsnc1N1CCOCC1 [Timolol] |  |  |  |  |  | did not change | did not change significantly | 25-30% | did not change significantly | ~2 | more than 2 times | did not change significantly |  |  |  |
| CCN[C@H]1C[C@H](C)S(=O)(=O)c2sc(S(N)(=O)=O)cc21 [Dorzolamide] |  |  |  | 6.35 | 8.5 |  | did not change significantly | 25-30% | did not change significantly |  |  | did not change significantly | < 5000 | reaches a bottom at pH 7 | almost comparable |
